Source: ChEMBL document CHEMBL5113522, “Discovery of CH7057288 as an Orally Bioavailable, Selective, and Potent pan-TRK Inhibitor” (J Med Chem, 2022)

Assays:
NIH3T3 [1] = assay: Antitumor activity against mouse NIH3T3 cells implanted in mouse assessed as tumor regression at 10 mg/kg, po administered once daily for 11 days and measured on day 12 relative to control; type: functional; conditions: time 12 day
[2] = molecular target: RAC-alpha serine/threonine-protein kinase (Homo sapiens, UniProt P31749); assay: Inhibition of AKT1 (unknown origin)
[3] = molecular target: Tyrosine-protein kinase JAK2 (Homo sapiens, UniProt O60674); assay: Inhibition of JAK2 (unknown origin)
[4] = molecular target: Hepatocyte growth factor receptor (Homo sapiens, UniProt P08581); assay: Inhibition of MET (unknown origin)
[5] = Volume of distribution at steady state in Wistar Hannover rat at 1 mg/kg, iv by LC-MS analysis; type: ADME, organism-based; conditions: in vivo, read-out: Vdss
[6] = molecular target: Tyrosine-protein kinase Lck (Homo sapiens, UniProt P06239); assay: Inhibition of LCK (unknown origin)
[7] = AUC in Beagle dog at 1 mg/kg, po by LC-MS analysis; type: ADME, organism-based, Canis lupus familiaris; parameters: dose 1 mg/kg, route po; conditions: in vivo
[8] = Volume of distribution at steady state in Beagle dog at 1 mg/kg, iv by LC-MS analysis; type: ADME, organism-based, Canis lupus familiaris; conditions: in vivo, read-out: Vdss
[9] = Half life in Beagle dog at 1 mg/kg, po by LC-MS analysis; type: ADME, organism-based, Canis lupus familiaris; conditions: in vivo
NIH3T3 [10] = assay: Antitumor activity against mouse NIH3T3 cells implanted in mouse assessed as tumor growth inhibition at 10 mg/kg, po administered once daily for 11 days and measured on day 12 relative to control; type: functional; conditions: NIH3T3, 288 h, time 12 day, read-out: TGI
[11] = molecular target: Receptor tyrosine-protein kinase erbB-2 (Homo sapiens, UniProt P04626); assay: Inhibition of HER2 (unknown origin)
[12] = Clearance in Beagle dog at 1 mg/kg, iv by LC-MS analysis; type: ADME, organism-based, Canis lupus familiaris; conditions: in vivo
[13] = molecular target: Fibroblast growth factor receptor 2 (Homo sapiens, UniProt P21802); assay: Inhibition of FGFR2 (unknown origin)
NIH3T3 [14] = assay: Antitumor activity against mouse NIH3T3 cells implanted in mouse assessed as tumor growth inhibition at 0.16 mg/kg, po administered once daily for 11 days and measured on day 12 relative to control; type: functional; conditions: NIH3T3, 288 h, time 12 day, read-out: TGI
NIH3T3 [15] = assay: Antitumor activity against mouse NIH3T3 cells implanted in mouse assessed as tumor growth inhibition at 0.63 mg/kg, po administered once daily for 11 days and measured on day 12 relative to control; type: functional; conditions: NIH3T3, 288 h, time 12 day, read-out: TGI
[16] = molecular target: Vascular endothelial growth factor receptor 2 (Homo sapiens, UniProt P35968); assay: Inhibition of KDR (unknown origin)
[17] = Cmax in Beagle dog at 1 mg/kg, po by LC-MS analysis; type: ADME, organism-based, Canis lupus familiaris; parameters: dose 1 mg/kg, route po; conditions: in vivo
[18] = molecular target: Proto-oncogene tyrosine-protein kinase Src (Homo sapiens, UniProt P12931); assay: Inhibition of Src (unknown origin)
Insulin receptor = Insulin receptor (Homo sapiens, UniProt P06213); assay: Inhibition of INSR (unknown origin)
[19] = Clearance in Wistar Hannover rat at 1 mg/kg, iv by LC-MS analysis; type: ADME, organism-based; conditions: in vivo
[20] = Half life in Wistar Hannover rat at 1 mg/kg, po by LC-MS analysis; type: ADME, organism-based; conditions: in vivo
[21] = Oral bioavailability in Beagle dog at 1 mg/kg by LC-MS analysis; type: ADME, organism-based, Canis lupus familiaris; conditions: in vivo
[22] = Half life in Beagle dog at 1 mg/kg, iv by LC-MS analysis; type: ADME, organism-based, Canis lupus familiaris; conditions: in vivo
[23] = Toxicity in mouse assessed as body weight loss at 10 mg/kg, po administered once daily for 11 days and measured on day 12; type: organism-based; conditions: in vivo, 288 h, time 12 day
[24] = molecular target: Cyclin-dependent kinase 1 (Homo sapiens, UniProt P06493); assay: Inhibition of CDK1 (unknown origin)
[25] = molecular target: NT-3 growth factor receptor (Homo sapiens, UniProt Q16288); assay: Inhibition of TRKC (unknown origin)
[26] = Antitumor activity against human CUTO-3 cells xenografted in mouse assessed as tumor growth inhibition at 10 mg/kg, po administered once daily for 11 days and measured on day 12 relative to control; type: functional; conditions: CUTO-3, 288 h, time 12 day, read-out: TGI
[27] = molecular target: cAMP-dependent protein kinase (PKA) (Homo sapiens, UniProt P22694+P17612+P22612); assay: Inhibition of PKA (unknown origin); type: protein assay
CYP3A4 = CYP3A4 (Homo sapiens, UniProt P08684); assay: Induction of CYP3A4 in human hepatocytes assessed as fold induction at 1 uM using testosterone as substrate preincubated with replacement of fresh medium containing compound every 24 hrs for 72 hrs followed by substrate addition and measured after 1 hr by LC-MS/MS analysis relative to control; type: ADME, cell-based, Hepatocyte; conditions: probe testosterone, time 73 hrs, read-out: FC
NIH3T3 [28] = assay: Antitumor activity against mouse NIH3T3 cells implanted in mouse assessed as tumor regression at 2.5 mg/kg, po administered once daily for 11 days and measured on day 12 relative to control; type: functional; conditions: time 12 day
[29] = Half life in Wistar Hannover rat at 1 mg/kg, iv by LC-MS analysis; type: ADME, organism-based; conditions: in vivo
[30] = Cmax in Wistar Hannover rat at 1 mg/kg, po by LC-MS analysis; type: ADME, organism-based; parameters: dose 1 mg/kg, route po; conditions: in vivo
NIH3T3 [31] = assay: Antiproliferative activity against […] NIH3T3 cells expressing MPRIP-NTRK1 assessed as cell growth inhibition incubated for 4 to 7 days by CellTiter-Glo Luminescent Cell Viability Assay; type: functional, cell-based; conditions: Mus musculus
[32] = molecular target: RAF proto-oncogene serine/threonine-protein kinase (Homo sapiens, UniProt P04049); assay: Inhibition of RAF1 (unknown origin)
[33] = molecular target: ALK tyrosine kinase receptor (Homo sapiens, UniProt Q9UM73); assay: Inhibition of ALK (unknown origin)
[34] = molecular target: BDNF/NT-3 growth factors receptor (Homo sapiens, UniProt Q16620); assay: Inhibition of TRKB (unknown origin)
[35] = molecular target: Protein kinase C alpha type (Homo sapiens, UniProt P17252); assay: Inhibition of PKCalpha (unknown origin)
[36] = molecular target: Epidermal growth factor receptor (Homo sapiens, UniProt P00533); assay: Inhibition of EGFR (unknown origin)
[37] = molecular target: Serine/threonine-protein kinase Chk1 (Homo sapiens, UniProt O14757); assay: Inhibition of CHK1 (unknown origin)
[38] = molecular target: High affinity nerve growth factor receptor (Homo sapiens, UniProt P04629); assay: Inhibition of TRKA (unknown origin)
[39] = AUC in Wistar Hannover rat at 1 mg/kg, po by LC-MS analysis; type: ADME, organism-based; parameters: dose 1 mg/kg, route po; conditions: in vivo
[40] = Oral bioavailability in Wistar Hannover rat at 1 mg/kg by LC-MS analysis; type: ADME, organism-based; conditions: in vivo
NIH3T3 [41] = assay: Antitumor activity against mouse NIH3T3 cells implanted in mouse assessed as tumor growth inhibition at 2.5 mg/kg, po administered once daily for 11 days and measured on day 12 relative to control; type: functional; conditions: NIH3T3, 288 h, time 12 day, read-out: TGI

Chain of CYP3A4 (P08684 whole entry): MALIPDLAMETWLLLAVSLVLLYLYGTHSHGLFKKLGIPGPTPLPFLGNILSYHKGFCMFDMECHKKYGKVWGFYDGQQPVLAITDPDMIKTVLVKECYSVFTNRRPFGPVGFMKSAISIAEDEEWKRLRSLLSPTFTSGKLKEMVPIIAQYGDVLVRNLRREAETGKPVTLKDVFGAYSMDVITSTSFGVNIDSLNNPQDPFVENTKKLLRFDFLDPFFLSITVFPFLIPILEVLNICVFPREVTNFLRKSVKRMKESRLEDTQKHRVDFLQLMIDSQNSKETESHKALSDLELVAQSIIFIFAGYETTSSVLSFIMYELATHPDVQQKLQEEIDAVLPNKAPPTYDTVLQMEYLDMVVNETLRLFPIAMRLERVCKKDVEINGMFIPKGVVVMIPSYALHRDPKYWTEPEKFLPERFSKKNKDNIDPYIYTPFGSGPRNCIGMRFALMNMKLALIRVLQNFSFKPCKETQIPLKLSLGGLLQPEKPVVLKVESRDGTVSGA
Chain of Tyrosine-protein kinase Lck (P06239 whole entry): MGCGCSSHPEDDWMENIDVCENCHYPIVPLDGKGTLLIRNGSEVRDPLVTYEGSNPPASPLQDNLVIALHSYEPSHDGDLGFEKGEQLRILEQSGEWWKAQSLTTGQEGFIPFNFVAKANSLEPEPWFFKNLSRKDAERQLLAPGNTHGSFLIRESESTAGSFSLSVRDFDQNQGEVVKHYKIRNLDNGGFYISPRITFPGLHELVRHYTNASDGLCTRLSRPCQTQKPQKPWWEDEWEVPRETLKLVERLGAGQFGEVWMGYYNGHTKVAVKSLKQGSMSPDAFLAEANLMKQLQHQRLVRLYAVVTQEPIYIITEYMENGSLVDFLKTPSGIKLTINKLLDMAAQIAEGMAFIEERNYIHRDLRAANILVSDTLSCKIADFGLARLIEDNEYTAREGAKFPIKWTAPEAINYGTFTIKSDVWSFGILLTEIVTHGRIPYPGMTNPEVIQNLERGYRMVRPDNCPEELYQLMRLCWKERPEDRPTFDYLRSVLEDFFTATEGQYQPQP
Chain of Vascular endothelial growth factor receptor 2 (P35968 whole entry): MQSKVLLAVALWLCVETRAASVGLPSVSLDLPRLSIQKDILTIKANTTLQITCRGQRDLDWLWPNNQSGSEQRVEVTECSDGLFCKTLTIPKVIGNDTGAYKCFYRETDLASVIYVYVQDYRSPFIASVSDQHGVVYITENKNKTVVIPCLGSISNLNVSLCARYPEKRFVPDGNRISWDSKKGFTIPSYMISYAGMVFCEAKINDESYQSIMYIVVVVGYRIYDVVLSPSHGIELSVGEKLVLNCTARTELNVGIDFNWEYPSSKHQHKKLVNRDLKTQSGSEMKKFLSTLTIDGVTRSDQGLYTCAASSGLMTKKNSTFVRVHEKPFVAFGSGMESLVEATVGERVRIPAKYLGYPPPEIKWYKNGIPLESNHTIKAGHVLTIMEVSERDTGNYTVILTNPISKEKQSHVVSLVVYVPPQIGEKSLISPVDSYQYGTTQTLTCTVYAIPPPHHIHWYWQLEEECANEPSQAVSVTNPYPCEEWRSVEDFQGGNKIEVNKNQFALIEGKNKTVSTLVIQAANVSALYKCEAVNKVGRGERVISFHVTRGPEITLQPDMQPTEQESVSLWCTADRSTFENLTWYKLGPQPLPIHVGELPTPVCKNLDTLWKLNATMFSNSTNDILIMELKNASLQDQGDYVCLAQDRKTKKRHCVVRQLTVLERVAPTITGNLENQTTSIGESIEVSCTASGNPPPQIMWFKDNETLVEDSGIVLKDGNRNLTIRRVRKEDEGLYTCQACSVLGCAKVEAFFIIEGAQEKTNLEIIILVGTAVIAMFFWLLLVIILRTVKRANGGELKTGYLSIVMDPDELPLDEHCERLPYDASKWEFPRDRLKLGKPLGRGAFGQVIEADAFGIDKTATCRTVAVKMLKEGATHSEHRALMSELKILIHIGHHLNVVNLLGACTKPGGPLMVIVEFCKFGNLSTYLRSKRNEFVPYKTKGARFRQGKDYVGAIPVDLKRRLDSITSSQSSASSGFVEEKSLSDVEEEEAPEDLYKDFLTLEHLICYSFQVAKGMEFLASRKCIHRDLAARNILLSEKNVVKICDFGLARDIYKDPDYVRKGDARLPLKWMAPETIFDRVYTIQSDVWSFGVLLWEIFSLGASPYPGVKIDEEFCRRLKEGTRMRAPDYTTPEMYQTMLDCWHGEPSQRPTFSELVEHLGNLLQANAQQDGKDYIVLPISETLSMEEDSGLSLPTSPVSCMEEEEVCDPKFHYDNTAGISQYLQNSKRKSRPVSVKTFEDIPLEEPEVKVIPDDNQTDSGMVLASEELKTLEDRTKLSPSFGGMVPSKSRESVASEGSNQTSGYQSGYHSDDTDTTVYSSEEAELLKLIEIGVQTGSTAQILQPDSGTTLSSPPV
Chain of High affinity nerve growth factor receptor (P04629 whole entry): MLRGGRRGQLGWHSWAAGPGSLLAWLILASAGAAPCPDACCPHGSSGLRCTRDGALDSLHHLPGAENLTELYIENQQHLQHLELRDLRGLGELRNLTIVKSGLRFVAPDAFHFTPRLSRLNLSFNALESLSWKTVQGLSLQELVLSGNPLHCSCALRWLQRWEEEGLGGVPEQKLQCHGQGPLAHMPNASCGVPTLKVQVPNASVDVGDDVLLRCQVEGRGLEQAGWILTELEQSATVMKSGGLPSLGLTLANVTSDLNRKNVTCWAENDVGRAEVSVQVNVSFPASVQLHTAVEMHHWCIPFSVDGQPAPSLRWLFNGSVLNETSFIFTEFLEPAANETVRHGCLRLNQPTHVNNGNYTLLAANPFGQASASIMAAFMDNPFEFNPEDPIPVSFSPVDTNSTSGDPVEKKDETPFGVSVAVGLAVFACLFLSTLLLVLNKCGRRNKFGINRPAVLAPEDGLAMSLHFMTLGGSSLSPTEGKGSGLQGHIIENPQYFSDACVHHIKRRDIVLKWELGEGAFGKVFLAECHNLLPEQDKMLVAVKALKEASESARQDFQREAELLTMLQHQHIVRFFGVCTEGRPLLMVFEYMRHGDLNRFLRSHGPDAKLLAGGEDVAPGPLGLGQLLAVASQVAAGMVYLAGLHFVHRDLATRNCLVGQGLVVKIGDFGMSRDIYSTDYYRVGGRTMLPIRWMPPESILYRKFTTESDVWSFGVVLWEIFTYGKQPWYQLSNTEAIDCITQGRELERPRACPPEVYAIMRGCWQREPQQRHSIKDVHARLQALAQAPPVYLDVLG
Chain of NT-3 growth factor receptor (Q16288 whole entry): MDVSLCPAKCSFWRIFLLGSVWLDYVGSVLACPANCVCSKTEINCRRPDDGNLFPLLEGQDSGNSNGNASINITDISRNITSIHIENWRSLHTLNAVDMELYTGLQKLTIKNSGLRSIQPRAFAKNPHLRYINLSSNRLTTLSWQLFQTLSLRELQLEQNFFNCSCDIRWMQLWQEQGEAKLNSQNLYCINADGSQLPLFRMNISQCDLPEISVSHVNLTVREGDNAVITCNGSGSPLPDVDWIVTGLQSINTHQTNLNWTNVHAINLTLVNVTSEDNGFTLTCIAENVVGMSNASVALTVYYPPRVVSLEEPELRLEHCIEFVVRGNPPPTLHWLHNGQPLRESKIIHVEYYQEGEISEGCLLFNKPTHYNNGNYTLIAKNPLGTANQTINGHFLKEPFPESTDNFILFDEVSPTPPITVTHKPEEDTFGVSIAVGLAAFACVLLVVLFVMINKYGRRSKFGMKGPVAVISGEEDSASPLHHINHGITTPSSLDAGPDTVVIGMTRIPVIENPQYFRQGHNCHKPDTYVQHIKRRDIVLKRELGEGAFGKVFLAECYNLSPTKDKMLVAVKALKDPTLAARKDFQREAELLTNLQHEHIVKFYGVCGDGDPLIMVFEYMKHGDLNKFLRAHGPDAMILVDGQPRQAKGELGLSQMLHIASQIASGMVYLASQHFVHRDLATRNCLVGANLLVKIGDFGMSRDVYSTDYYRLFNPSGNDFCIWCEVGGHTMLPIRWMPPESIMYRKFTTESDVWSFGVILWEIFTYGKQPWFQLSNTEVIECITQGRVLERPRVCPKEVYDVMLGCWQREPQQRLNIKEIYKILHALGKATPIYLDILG
Chain of Cyclin-dependent kinase 1 (P06493 whole entry): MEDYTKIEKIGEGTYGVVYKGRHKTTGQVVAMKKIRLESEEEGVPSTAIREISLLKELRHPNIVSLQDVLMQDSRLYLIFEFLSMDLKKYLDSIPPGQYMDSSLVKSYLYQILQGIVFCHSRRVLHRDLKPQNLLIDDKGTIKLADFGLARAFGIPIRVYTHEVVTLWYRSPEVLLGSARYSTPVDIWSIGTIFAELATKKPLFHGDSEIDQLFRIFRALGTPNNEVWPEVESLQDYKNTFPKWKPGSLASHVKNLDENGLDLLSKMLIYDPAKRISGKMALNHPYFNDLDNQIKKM

Q: Which Activity (NIH3T3 [1]) does the source give for `Cc1cc(C(=O)NC(C)(C)C)cc(C#Cc2ccc3c4c(oc3c2)C(C)(C)c2cc(NS(C)(=O)=O)ccc2C4=O)n1` here?
A: 72%

Q: And the IC50 [2]?
A: > 10000 nM

Q: And the IC50 [3]?
A: > 10000 nM

Q: What about the IC50 [4] of the same compound?
A: > 10000 nM

Q: And the Vd [5]?
A: 0.587 L/kg

Q: And the IC50 [6]?
A: 300 nM

Q: And the AUC [7]?
A: 11000 ng·h/mL

Q: What about the Vd [8] of the same compound?
A: 1.69 L/kg

Q: What about the half-life [9] of the same compound?
A: 15.2 h

Q: What about the inhibition in vivo at 10 mg/kg (NIH3T3 [10]) of the same compound?
A: 105%

Q: And the IC50 [11]?
A: > 10000 nM

Q: And the clearance [12]?
A: 1.48 mL/min/kg

Q: And the IC50 [13]?
A: > 10000 nM

Q: And the inhibition in vivo at 0.16 mg/kg (NIH3T3 [14])?
A: 14%

Q: And the inhibition in vivo at 0.63 mg/kg (NIH3T3 [15])?
A: 16%

Q: What about the IC50 [16] of the same compound?
A: > 1000 nM

Q: And the Cmax [17]?
A: 763 ng/mL

Q: What about the IC50 [18] of the same compound?
A: > 10000 nM

Q: And the IC50 (Insulin receptor)?
A: > 10000 nM

Q: What about the clearance [19] of the same compound?
A: 1.07 mL/min/kg

Q: What about the half-life [20] of the same compound?
A: 9.01 h

Q: And the bioavailability [21]?
A: 97.5%

Q: And the half-life [22]?
A: 12.7 h

Q: What about the Activity [23] of the same compound?
A: Non-Toxic

Q: What about the IC50 [24] of the same compound?
A: > 10000 nM

Q: What about the IC50 [25] of the same compound?
A: 2.8 nM

Q: And the inhibition in vivo at 10 mg/kg [26]?
A: 171%

Q: And the IC50 [27]?
A: > 10000 nM

Q: What about the fold induction at 1 h, 1 µM (CYP3A4) of the same compound?
A: 3

Q: And the Activity (NIH3T3 [28])?
A: 26%

Q: And the half-life [29]?
A: 7.49 h

Q: And the Cmax [30]?
A: 581 ng/mL

Q: And the IC50 (NIH3T3 [31])?
A: 8.4 nM

Q: And the IC50 [32]?
A: > 10000 nM

Q: What about the IC50 [33] of the same compound?
A: > 10000 nM

Q: What about the IC50 [34] of the same compound?
A: 2 nM

Q: What about the IC50 [35] of the same compound?
A: > 10000 nM

Q: What about the IC50 [36] of the same compound?
A: > 10000 nM

Q: And the IC50 [37]?
A: > 10000 nM

Q: And the IC50 [38]?
A: 1.2 nM

Q: What about the AUC [39] of the same compound?
A: 5950 ng·h/mL

Q: What about the bioavailability [40] of the same compound?
A: 38%

Q: What about the inhibition in vivo at 2.5 mg/kg (NIH3T3 [41]) of the same compound?
A: 102%

Q: With `CCCc1cc(C(=O)NC(C)(C)C)cc(C#Cc2ccc3c4c(oc3c2)C(C)(C)c2cc(NS(C)(=O)=O)ccc2C4=O)n1` as the compound, how does the IC50 [6] read?
A: 96 nM

Q: What about the IC50 [16] of the same compound?
A: > 1000 nM

Q: And the fold induction at 1 h, 1 µM (CYP3A4)?
A: 0.9

Q: And the IC50 (NIH3T3 [31])?
A: 12 nM

Q: What about the IC50 [38] of the same compound?
A: 1.2 nM

Q: Which IC50 [6] does the source give for `CC(C)(C)NC(=O)c1ccnc(C#Cc2ccc3c4c(oc3c2)C(C)(C)c2cc(NS(C)(=O)=O)ccc2C4=O)c1` here?
A: 130 nM

Q: What about the IC50 [16] of the same compound?
A: 600 nM

Q: And the fold induction at 1 h, 1 µM (CYP3A4)?
A: 4.7

Q: What about the IC50 (NIH3T3 [31]) of the same compound?
A: 14 nM

Q: And the IC50 [38]?
A: 0.7 nM

Q: Which results are given for `CC(C)(C)NC(=O)c1cc(C#N)nc(C#Cc2ccc3c4c(oc3c2)C(C)(C)c2cc(NS(C)(=O)=O)ccc2C4=O)c1`?
A: IC50 [6]: 58 nM; IC50 [16]: > 1000 nM; fold induction at 1 h, 1 µM (CYP3A4): 11; IC50 (NIH3T3 [31]): 67 nM; IC50 [38]: 2.8 nM

Q: With `Cc1cnc(C#Cc2ccc3c4c(oc3c2)C(C)(C)c2cc(NS(C)(=O)=O)ccc2C4=O)cc1C(=O)NC(C)(C)C` as the compound, how does the IC50 [6] read?
A: 760 nM

Q: What about the IC50 [16] of the same compound?
A: > 1000 nM

Q: And the fold induction at 1 h, 1 µM (CYP3A4)?
A: 2.6

Q: And the IC50 (NIH3T3 [31])?
A: 65 nM

Q: And the IC50 [38]?
A: 3.8 nM

Q: Which IC50 [6] does the source give for `CCc1cc(C(=O)NC(C)(C)C)cc(C#Cc2ccc3c4c(oc3c2)C(C)(C)c2cc(NS(C)(=O)=O)ccc2C4=O)n1` here?
A: 320 nM

Q: And the IC50 [16]?
A: > 1000 nM

Q: And the fold induction at 1 h, 1 µM (CYP3A4)?
A: 2.8

Q: And the IC50 (NIH3T3 [31])?
A: 12 nM

Q: What about the IC50 [38] of the same compound?
A: 0.7 nM
